Results reported in ChEMBL document CHEMBL1141234, “Synthesis and SAR of highly potent dual 5-HT1A and 5-HT1B antagonists as potential antidepressant drugs” (Bioorg Med Chem Lett, 2005).
Activity calls are given as the source filed them. The calls are words filed in the database; no cut-off is given here.

Assays:
Rattus norvegicus [1] = species: Rattus norvegicus; assay: Electrically stimulated [3H]5-HT release from rat brain cortical slices at 1 uM; type: functional, tissue-based
[2] = molecular target: Sodium-dependent dopamine transporter (Homo sapiens) (UniProt Q01959); assay: Inhibitory activity against DAT upto 10 uM
Sodium-dependent dopamine transporter (Homo sapiens), sequence (Q01959 whole entry): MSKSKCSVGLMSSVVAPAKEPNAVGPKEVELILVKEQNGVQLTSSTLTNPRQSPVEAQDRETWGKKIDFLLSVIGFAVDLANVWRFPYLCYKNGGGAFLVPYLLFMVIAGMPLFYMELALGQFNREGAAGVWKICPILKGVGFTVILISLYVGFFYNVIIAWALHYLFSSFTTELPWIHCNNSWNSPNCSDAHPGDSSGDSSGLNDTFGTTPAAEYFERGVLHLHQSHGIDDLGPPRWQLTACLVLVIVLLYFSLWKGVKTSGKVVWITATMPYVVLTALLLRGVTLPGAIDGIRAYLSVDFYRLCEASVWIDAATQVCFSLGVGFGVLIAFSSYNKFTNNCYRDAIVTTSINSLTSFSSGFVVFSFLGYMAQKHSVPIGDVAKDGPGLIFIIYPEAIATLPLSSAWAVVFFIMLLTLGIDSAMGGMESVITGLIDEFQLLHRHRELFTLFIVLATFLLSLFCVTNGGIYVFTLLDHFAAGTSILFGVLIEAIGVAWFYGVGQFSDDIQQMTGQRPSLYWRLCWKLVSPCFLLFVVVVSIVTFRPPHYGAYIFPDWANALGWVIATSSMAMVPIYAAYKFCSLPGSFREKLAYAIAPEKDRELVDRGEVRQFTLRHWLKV

Rattus norvegicus [3] = species: Rattus norvegicus; assay: Electrically stimulated [3H]5-HT release from rat brain cortical slices at 0.1 uM; type: functional, tissue-based
[4] = Ratio of drug level in brain against plasma in rat; type: ADME, organism-based; details: read-out: BBR
Mus musculus = assay: In vivo mouse forced swim test at 30 mg/kg, ip; type: functional, organism-based; set-up: dose 30 mg/kg
[5] = molecular target: T1, Adrenergic receptor alpha-1 (Homo sapiens, UniProt P35348+P25100+P35368); assay: Inhibitory activity against Adrenergic alpha-1 receptor; type: protein assay
T1 sequence (P35348 whole entry): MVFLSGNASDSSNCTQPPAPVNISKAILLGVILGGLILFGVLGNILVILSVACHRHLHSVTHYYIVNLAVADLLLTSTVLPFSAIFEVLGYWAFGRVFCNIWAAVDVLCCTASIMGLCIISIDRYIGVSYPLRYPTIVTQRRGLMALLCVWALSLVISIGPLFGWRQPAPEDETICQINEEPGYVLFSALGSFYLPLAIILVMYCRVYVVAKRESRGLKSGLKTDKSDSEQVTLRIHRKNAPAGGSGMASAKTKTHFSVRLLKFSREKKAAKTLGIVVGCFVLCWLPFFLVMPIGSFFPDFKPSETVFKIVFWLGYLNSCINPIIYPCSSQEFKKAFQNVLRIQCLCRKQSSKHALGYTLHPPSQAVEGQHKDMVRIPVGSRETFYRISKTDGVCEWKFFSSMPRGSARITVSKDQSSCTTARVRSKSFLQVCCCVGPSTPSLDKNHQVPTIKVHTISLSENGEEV
T1 sequence (P25100 whole entry): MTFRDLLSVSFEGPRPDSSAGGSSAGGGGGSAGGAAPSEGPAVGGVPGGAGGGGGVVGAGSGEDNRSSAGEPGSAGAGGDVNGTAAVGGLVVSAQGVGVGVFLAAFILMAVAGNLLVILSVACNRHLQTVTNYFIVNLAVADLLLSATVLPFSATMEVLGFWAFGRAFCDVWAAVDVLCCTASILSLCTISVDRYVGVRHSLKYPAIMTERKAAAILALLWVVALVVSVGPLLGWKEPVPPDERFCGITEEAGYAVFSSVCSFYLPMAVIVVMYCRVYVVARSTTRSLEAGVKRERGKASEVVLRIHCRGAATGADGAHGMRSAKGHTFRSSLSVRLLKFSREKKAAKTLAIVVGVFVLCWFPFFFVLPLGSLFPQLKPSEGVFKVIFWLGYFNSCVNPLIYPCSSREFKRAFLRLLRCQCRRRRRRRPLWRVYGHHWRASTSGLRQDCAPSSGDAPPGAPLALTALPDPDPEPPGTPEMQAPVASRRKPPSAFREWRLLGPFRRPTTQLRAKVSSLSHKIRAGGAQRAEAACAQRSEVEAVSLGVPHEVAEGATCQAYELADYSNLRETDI
T1 sequence (P35368 whole entry): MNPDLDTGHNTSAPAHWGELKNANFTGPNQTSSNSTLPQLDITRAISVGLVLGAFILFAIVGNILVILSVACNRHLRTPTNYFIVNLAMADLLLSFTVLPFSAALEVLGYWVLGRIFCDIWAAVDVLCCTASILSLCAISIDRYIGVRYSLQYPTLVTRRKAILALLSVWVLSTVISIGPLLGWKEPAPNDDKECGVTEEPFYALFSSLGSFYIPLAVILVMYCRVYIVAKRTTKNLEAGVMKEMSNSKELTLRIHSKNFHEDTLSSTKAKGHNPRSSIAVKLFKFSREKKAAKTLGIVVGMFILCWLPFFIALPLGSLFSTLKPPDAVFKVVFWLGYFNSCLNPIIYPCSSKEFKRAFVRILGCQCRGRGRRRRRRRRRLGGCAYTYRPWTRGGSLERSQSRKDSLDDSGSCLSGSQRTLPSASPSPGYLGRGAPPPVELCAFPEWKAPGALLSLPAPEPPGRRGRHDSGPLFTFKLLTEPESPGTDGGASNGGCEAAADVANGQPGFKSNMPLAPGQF

[6] = molecular target: T2, 5-hydroxytryptamine receptor 1B (Homo sapiens, UniProt P28222); assay: Functional activity in FLIPR assay for 5HT1B receptor; details: filed as antagonist
T2 sequence (P28222 whole entry): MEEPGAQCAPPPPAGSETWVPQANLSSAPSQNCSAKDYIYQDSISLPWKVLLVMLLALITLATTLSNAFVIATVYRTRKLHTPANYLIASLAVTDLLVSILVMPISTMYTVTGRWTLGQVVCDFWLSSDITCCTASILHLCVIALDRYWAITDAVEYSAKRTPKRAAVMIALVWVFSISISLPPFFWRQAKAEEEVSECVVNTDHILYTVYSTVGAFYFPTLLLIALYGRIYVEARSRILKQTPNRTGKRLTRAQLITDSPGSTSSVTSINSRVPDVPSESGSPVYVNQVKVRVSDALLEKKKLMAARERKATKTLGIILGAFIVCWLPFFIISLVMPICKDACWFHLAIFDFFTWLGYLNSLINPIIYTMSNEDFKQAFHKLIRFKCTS

[7] = molecular target: T3, 5-hydroxytryptamine receptor 2C (Homo sapiens, UniProt P28335); assay: Inhibitory activity against 5HT2C receptor
T3 sequence (P28335 whole entry): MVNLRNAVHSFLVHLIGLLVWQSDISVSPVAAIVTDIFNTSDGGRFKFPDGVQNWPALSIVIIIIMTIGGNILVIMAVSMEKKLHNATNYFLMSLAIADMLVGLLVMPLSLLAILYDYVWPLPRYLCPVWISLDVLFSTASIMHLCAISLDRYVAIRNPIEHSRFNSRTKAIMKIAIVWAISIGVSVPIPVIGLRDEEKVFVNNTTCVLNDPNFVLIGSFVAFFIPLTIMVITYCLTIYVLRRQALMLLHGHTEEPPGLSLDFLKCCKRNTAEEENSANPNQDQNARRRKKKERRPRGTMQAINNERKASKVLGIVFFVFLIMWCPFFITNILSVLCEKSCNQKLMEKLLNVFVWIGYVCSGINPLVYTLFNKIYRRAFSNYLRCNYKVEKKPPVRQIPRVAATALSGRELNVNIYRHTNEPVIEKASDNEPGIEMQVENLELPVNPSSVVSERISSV

[8] = molecular target: T4, 5-hydroxytryptamine receptor 1A (Rattus norvegicus, UniProt P19327); assay: Binding affinity for rat 5HT1A receptor
T4 sequence (P19327 whole entry): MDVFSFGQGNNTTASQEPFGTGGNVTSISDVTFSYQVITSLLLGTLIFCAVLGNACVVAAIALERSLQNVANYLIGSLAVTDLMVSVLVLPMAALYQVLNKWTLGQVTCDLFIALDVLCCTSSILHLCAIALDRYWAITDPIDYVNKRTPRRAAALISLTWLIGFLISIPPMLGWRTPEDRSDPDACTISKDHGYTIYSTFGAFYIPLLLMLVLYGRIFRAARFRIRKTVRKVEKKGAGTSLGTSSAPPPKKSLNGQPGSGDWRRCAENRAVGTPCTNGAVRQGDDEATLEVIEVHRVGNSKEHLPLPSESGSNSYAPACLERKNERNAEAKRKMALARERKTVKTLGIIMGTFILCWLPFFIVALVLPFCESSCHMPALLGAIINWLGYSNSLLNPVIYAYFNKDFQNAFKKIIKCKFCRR

[9] = molecular target: T2, 5-hydroxytryptamine receptor 1B; assay: Inhibitory activity against human recombinant 5HT1B receptor co-expressed with G-protein chimera Gqo5 in HEK293 cells by FLIPR; type: functional, cell-based
[10] = molecular target: T2, 5-hydroxytryptamine receptor 1B; assay: Intrinsic activity for 5HT1B receptor in FLIPR assay; type: functional
[11] = molecular target: Sodium-dependent noradrenaline transporter (Homo sapiens) (UniProt P23975); assay: Inhibitory activity against NET upto 10 uM
Sodium-dependent noradrenaline transporter (Homo sapiens), sequence (P23975 whole entry): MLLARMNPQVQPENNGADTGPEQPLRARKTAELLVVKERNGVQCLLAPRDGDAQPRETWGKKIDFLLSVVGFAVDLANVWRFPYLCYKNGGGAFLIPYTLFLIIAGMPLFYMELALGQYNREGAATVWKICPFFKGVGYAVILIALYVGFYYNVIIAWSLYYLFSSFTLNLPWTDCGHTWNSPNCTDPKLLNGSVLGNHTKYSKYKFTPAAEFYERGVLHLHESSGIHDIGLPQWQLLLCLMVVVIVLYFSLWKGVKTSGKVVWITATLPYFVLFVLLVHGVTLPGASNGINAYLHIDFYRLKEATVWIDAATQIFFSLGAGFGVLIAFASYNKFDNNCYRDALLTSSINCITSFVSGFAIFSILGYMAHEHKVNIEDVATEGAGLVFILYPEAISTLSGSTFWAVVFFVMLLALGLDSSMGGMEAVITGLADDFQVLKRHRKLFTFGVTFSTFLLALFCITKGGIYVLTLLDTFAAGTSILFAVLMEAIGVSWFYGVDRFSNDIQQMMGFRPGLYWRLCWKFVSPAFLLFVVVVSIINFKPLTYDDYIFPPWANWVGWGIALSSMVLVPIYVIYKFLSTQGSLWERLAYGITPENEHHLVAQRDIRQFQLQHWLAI

In the case of `CN1CCc2c(sc3ncn(CCN4CCN(c5cncc6ccccc56)CC4)c(=O)c23)C1`, the Activity (Rattus norvegicus [1]) is reported as “Dose-dependent effect”, the Activity [2] is reported as “inactive” and the Activity (Rattus norvegicus [3]) is reported as “Dose-dependent effect”. The Kp [4] was 10.2, the Activity (Mus musculus) was “inactive” and the Ki [5] was 13.7 nM. The Activity [6] was “Antagonist”, the Ki [7] was greater than 10000 nM and the Ki [8] was 16.3 nM. It also gave an IC50 [9] of 35 nM, a Ki [9] of 2.5 nM and an Emax [10] of 7%. For the same molecule, the Activity [11] was “inactive”.
